The supplement of paper PMC13380429
± gives the standard deviation of the averaged measurements.

Experiments:
Conditions in all cases: 72 h
Calu-3 [1] = experiment: relative viability EC50 (midpoint between 100% and the lowest measured viability); higher = less toxic
HepG2 [2] = experiment: as above
U2OS [3] = experiment: as above
Caco-2 [4] = experiment: as above
Calu-3 [5] = experiment: drug sensitivity score (DSS) for viability; higher = more toxic; extreme values may be limits of the assay
Vero E6 [6] = experiment: as above
HepG2 [7] = experiment: as above
U2OS [8] = experiment: as above
Caco-2 [9] = experiment: as above
Calu-3 [10] = experiment: cell viability relative to DMSO; higher = less toxic
Vero E6 [11] = experiment: as above
HepG2 [12] = experiment: as above
U2OS [13] = experiment: as above
Caco-2 [14] = experiment: as above
Vero E6 [15] = experiment: relative viability EC50 (midpoint between 100% and the lowest measured viability); higher = less toxic

Structure (SMILES) | relative viability EC50 (Calu-3 [1]) [µM] | relative viability EC50 (HepG2 [2]) [µM] | relative viability EC50 (U2OS [3]) [µM] | relative viability EC50 (Caco-2 [4]) [µM] | drug sensitivity score (Calu-3 [5]) | drug sensitivity score (Vero E6 [6]) | drug sensitivity score (HepG2 [7]) | drug sensitivity score (U2OS [8]) | drug sensitivity score (Caco-2 [9]) | cell viability (Calu-3 [10]; 1 nM) [%] | cell viability (Calu-3 [10]; 10 nM) [%] | cell viability (Calu-3 [10]; 100 nM) [%] | cell viability (Calu-3 [10]; 1000 nM) [%] | cell viability (Calu-3 [10]; 10000 nM) [%] | cell viability (Vero E6 [11]; 1 nM) [%] | cell viability (Vero E6 [11]; 10 nM) [%] | cell viability (Vero E6 [11]; 100 nM) [%] | cell viability (Vero E6 [11]; 1000 nM) [%] | cell viability (Vero E6 [11]; 10000 nM) [%] | cell viability (HepG2 [12]; 1 nM) [%] | cell viability (HepG2 [12]; 10 nM) [%] | cell viability (HepG2 [12]; 100 nM) [%] | cell viability (HepG2 [12]; 1000 nM) [%] | cell viability (HepG2 [12]; 10000 nM) [%] | cell viability (U2OS [13]; 1 nM) [%] | cell viability (U2OS [13]; 10 nM) [%] | cell viability (U2OS [13]; 100 nM) [%] | cell viability (U2OS [13]; 1000 nM) [%] | cell viability (U2OS [13]; 10000 nM) [%] | cell viability (Caco-2 [14]; 1 nM) [%] | cell viability (Caco-2 [14]; 10 nM) [%] | cell viability (Caco-2 [14]; 100 nM) [%] | cell viability (Caco-2 [14]; 1000 nM) [%] | cell viability (Caco-2 [14]; 10000 nM) [%] | relative viability EC50 (Vero E6 [15]) [µM]
Cc1ccc(/C=C2\CNC/C(=C\c3ccc(C)cc3)C2=O)cc1 | > 10 | 3.24 | 3 | 2.36 | 0.5 | 2.4 | 4.8 | 5.1 | 4.3 | 92.7 | 112 | 105 | 104 | 79 | 101 | 97.9 | 104 | 103 | 50.2 | 119 | 99.2 | 110 | 101 | 12.4 | 105 | 106 | 101 | 98 | 13.4 | 103 | 98.6 | 94 | 94.1 | 38.8 | –
C=C1c2cccc(O)c2C(=O)C2=C(O)[C@]3(O)C(=O)C(C(N)=O)=C(O)[C@@H](N(C)C)[C@@H]3[C@@H](O)[C@H]12 [methacycline] | > 10 | > 10 | > 10 | > 10 | 0.3 | 5.8 | 0 | 0 | 0 | 99.3 | 89.1 | 100 | 83 | 90.7 | 70.6 | 105 | 71.4 | 97.6 | 63.2 | 104 | 99.9 | 97.9 | 96.9 | 89.9 | 101 | 96.9 | 104 | 99.9 | 103 | 98.1 | 95.7 | 99.7 | 93.5 | 95.4 | –
O=C1Nc2ccccc2/C1=C1/Nc2ccccc2C1=O [indirubin] | > 10 | > 10 | – | > 10 | 0 | 0 | 0 | – | 0 | 116 | 104 | 109 | 93.1 | 119 | 101 | 96.4 | 97.5 | 97.7 | 98.1 | 110 | 110 | 97.8 | 94 | 93.6 | – | – | – | – | – | 101 | 100 | 109 | 94.8 | 105 | > 10
COc1ccc(-n2c(C)c([N+](=O)[O-])c3ccc(O)cc32)cc1 [ID-8] | > 10 | > 10 | – | > 10 | 2.6 | 0 | 0 | – | 0 | 99.7 | 97.6 | 91.1 | 79.9 | 88.4 | 96.3 | 103 | 94.2 | 94.5 | 92.1 | 99.3 | 102 | 97.4 | 106 | 93.6 | – | – | – | – | – | 98.3 | 111 | 91 | 92.2 | 94.5 | > 10
N#Cc1cccc(-c2nc(-c3cccnc3)no2)c1 [NS-9283] | – | > 10 | > 10 | > 10 | – | 0 | 0 | 0 | 0 | – | – | – | – | – | 99.1 | 98.7 | 101 | 102 | 99.7 | 105 | 97.2 | 104 | 101 | 98.8 | 100 | 101 | 97.1 | 98.6 | 99.7 | 91.1 | 94.4 | 90.9 | 95 | 93.1 | > 10
Cc1c[nH]c2ncnc(N3CCC(CN)(C(=O)Nc4cccc(OC(=O)N(C)C)c4)CC3)c12 [LX7101] | > 10 | > 10 | – | > 10 | 0 | 0 | 0.1 | 2.2 | 0.9 | 82.4 | 99.4 | 110 | 125 | 114 | 93.2 | 100 | 92.4 | 102 | 112 | 99.8 | 99.2 | 101 | 102 | 86.4 | 98 | 97.4 | 98.5 | 94 | 70.9 | 88.3 | 97.8 | 98.9 | 96 | 82.4 | > 10
CCOC(=O)NNc1ccc(N(CC)CC(C)O)nn1 (centres undefined) [cadralazine] | > 10 | > 10 | – | > 10 | 0 | 0 | 0 | – | 0 | 104 | 96.3 | 91.6 | 88.1 | 101 | 105 | 100 | 94.8 | 100 | 95.2 | 95.6 | 103 | 97.9 | 96.6 | 106 | – | – | – | – | – | 110 | 97.4 | 100 | 102 | 102 | > 10
Cn1c(N2CCCCS2(=O)=O)nc(C(=O)NCc2ccc(F)cc2)c(O)c1=O | > 10 | 3.68 | – | > 10 | 0 | 0.1 | 2.4 | 3.4 | 0 | 98.4 | 89.8 | 95.6 | 102 | 97.4 | 103 | 96.6 | 100 | 102 | 85.4 | 103 | 96.9 | 105 | 106 | 46.9 | 94.3 | 100 | 94.5 | 93.7 | 54.9 | 85.9 | 88.6 | 88.9 | 92.7 | 81.1 | > 10
COC(=O)Nc1nc2cc(C(=O)c3cccs3)ccc2[nH]1 [nocodazole] | – | 0.159 | 0.252 | 0.174 | 10.6 | 17.9 | 13.3 | 13.6 | 11.8 | 103 | 105 | 73.8 | 65.4 | 54.9 | 105 | 108 | 64.8 | 30.7 | 26.8 | 114 | 103 | 85.6 | 40 | 40.2 | 105 | 110 | 70.4 | 46 | 24.3 | 102 | 105 | 73.6 | 54.1 | 40.6 | 0.103
CCn1cc(C(=O)O)c(=O)c2ccc(-c3ccncc3)cc21 [rosoxacin] | – | > 10 | > 10 | > 10 | – | 0 | 0 | 0 | 0 | – | – | – | – | – | 99.8 | 102 | 89.1 | 103 | 103 | 94.7 | 97.8 | 97.5 | 94.6 | 111 | 101 | 96.6 | 99.2 | 97.8 | 99.9 | 102 | 98 | 96.3 | 98.6 | 95.7 | > 10
CC(C)C[C@@H](C(=O)N[C@H](C(=O)OC1CCCC1)c1ccccc1)[C@H](O)C(=O)NO [tosedostat] | – | – | – | > 10 | 8.9 | 0 | 4.6 | 1.5 | 1.1 | 96.2 | 101 | 74.6 | 69.7 | 59.8 | 99.7 | 99.1 | 104 | 102 | 106 | 105 | 87.8 | 88.5 | 80.1 | 66.7 | 97.7 | 103 | 96.3 | 98.3 | 70.9 | 90 | 105 | 93.6 | 88.6 | 84.1 | > 10
C[C@H](CCC(=O)O)[C@H]1CC[C@H]2[C@@H]3C(=O)C[C@@H]4CC(=O)CC[C@]4(C)[C@H]3CC(=O)[C@]12C [dehydrocholate-acid] | – | > 10 | > 10 | > 10 | – | 0 | 0 | 0 | 0 | – | – | – | – | – | 97.8 ± 0.57 | 102 ± 5.9 | 91.2 ± 6.6 | 94 ± 8 | 103 ± 7.6 | 95.8 ± 7.3 | 102 ± 5.5 | 95.05 ± 0.21 | 103 ± 1.1 | 102 ± 7.3 | 101 ± 2.8 | 96.9 ± 2.8 | 98.3 ± 1.3 | 96 ± 2.3 | 97.6 ± 0.14 | 95.5 ± 1.1 | 84 ± 19 | 96.2 ± 5.6 | 94.2 ± 6.7 | 93.2 ± 16 | > 10
Cc1nc2c(OCc3ccccc3)cccn2c1CC#N | – | > 10 | > 10 | > 10 | – | 0 | 0 | 0 | 0 | – | – | – | – | – | 92.4 | 93.3 | 95.8 | 95.1 | 103 | 106 | 107 | 95.9 | 106 | 97.5 | 98 | 102 | 100 | 95.3 | 98.2 | 97.9 | 91.1 | 107 | 100 | 93.6 | > 10
OCc1ccc(CO)o1 [2,5-furandimethanol] | – | > 10 | > 10 | > 10 | – | 0 | 0 | 0 | 0 | – | – | – | – | – | 97.1 | 94.3 | 88.2 | 94.4 | 107 | 98.6 | 97.3 | 108 | 106 | 100 | 95.4 | 104 | 96.6 | 98.5 | 99 | 89.2 | 100 | 84.4 | 95.1 | 103 | > 10
O=C(O)c1ccc(S(=O)(=O)N(Cc2ccc(OC(F)(F)F)cc2)c2ncc(C(F)(F)F)cc2Cl)cc1 | – | > 10 | > 10 | > 10 | – | 0.1 | 0 | 0 | 0 | – | – | – | – | – | 104 | 95.9 | 99.3 | 96.5 | 88.9 | 104 | 108 | 95.3 | 99.8 | 95.6 | 99.4 | 95.1 | 97.3 | 96.2 | 97.2 | 96.7 | 92.3 | 90.6 | 96.5 | 104 | > 10
